With `OCCC1CCc2cc3ccccc3n2C1` (stereo not drawn), the melting point – broadly, the temperature, or range, at which the solid turns liquid – is 70 to 72 °C.
Consider `C#CCn1c(-c2ccc(OC)cc2)c([N+](=O)[O-])c2ccc(OC)cc2c1=O`, for which the melting point is 162 to 164 °C.
For `Cc1cc(C)nc(-n2cnc(N)n2)n1`, the melting point lay in the range of 235 to 238 °C.
In turn, `CCc1cc2c(cc1CC)C(=O)CCC2` yielded a melting point of 93 °C.
In turn, `CCOc1ccc2c(c1)n(C1CCCCC1)c(=O)n2S(=O)(=O)c1ccc(N)cc1OC` displayed a melting point of 228 °C.
With `CCCCCCC(NS(=O)(=O)c1ccc(Cl)cc1)C(=O)Nc1ccc(CC(=O)O)cc1` (racemic), the melting point lay in the range of 192 to 193 °C.
In the case of `CCOC(=O)c1c2ccc(CC(=O)NOCCN3CCCCC3)ccc-2c(C(=O)OCC)c1N`, the melting point was in the range of 163 to 165 °C.
For the compound `Cc1cnc(CCCC#N)c(N)c1`, the melting point was 84 to 87 °C.
`COc1ccc2c(c1)C(=S)N(C)CC(CCCl)O2` (stereo not drawn) gave a melting point of 98 to 100 °C.
With `CC(C)n1nc(C(=O)NCC2CCN(CCc3ccc(C(=O)O)cc3)CC2)c2ccccc21`, the melting point fell in the range of 179 to 181 °C.
Take `O=c1c(Cl)c(Cl)cnn1[C@@H]1C[C@H](O)[C@@H](O)[C@H]1O` (racemic): the melting point was determined as 163 °C.
The figure for `CCn1cc(C(=O)O)c(=O)c2cc(F)c(Cl)nc21` is 265 to 267 °C; for `CC(=O)OCC1OC(OC2C(COC(C)=O)OC(O)(Br)C(OC(C)=O)C2OC(C)=O)C(OC(C)=O)C(OC(C)=O)C1OC(C)=O` (stereo not drawn) it is 97 to 99 °C; for `COc1ccc(-c2nc(SCS(C)=O)[nH]c2-c2ccc(OC)cc2)cc1` (stereo not drawn) it is 84.5 to 86.5 °C.
Compound `C#CCn1c(=O)cc(-c2ccccc2)c2cccnc21` had a melting point of 127 to 129 °C.
Consider `CC(C(=O)O)c1ccc(-c2ccccc2)c(O)c1` (stereo not drawn), for which the melting point was in the range of 112 to 119 °C.
Take `O=C(O)c1cn(C2CC2)c2c(F)c(F)c(F)c(F)c2c1=O`: the melting point is 179 to 180 °C.
The figure for `O=c1c2ccccc2[nH]n1Cc1cccc2ccccc12` is 198 to 200 °C; for `CCOC(=O)C(C(=O)OC(C)(C)C)c1c([N+](=O)[O-])cc([N+](=O)[O-])c2ccccc12` (stereo not drawn) it is 86 to 88 °C; for `C(#Cc1cccc2ccccc12)c1ccccc1` it is 51 to 53 °C.
Compound `CCOCc1cnc2c(NC(=O)c3c(Cl)cccc3Cl)cccc2c1Cl` showed a melting point of 121 to 123 °C.
Compound `O=C(NCCO)c1cccc(-c2cccc3cc(Cc4cc(F)cc(Cl)c4)sc23)n1` came in with a melting point of 139 to 140 °C.
`CN1CCN(c2ccccc2CO)[C@@H]2c3ccccc3C[C@H]21` (relative stereo) registered a melting point of 166 to 167 °C.
The compound `Cc1ccc(C2=C(c3ccc(S(C)(=O)=O)cc3)CN(C3CC3)C2=O)cc1` gave a melting point of 214 to 216 °C.
The compound `CCOC(=O)N1CCN(C2=Nc3ccccc3Nc3ccsc32)CC1` had a melting point of 166 °C.
In turn, `CCCc1cccc2c(C=O)cc(OC)c(O)c12` displayed a melting point of 128 to 129 °C.
Compound `O=C(c1ccc(Sc2ccc(O)cc2)cc1)c1ccc(Sc2ccc(O)cc2)cc1` yielded a melting point of 219 to 221 °C.
`Cc1nc(-c2ccc(CCC3(O)CN4CCC3CC4)cc2)no1` (stereo not drawn) returned a melting point of 165 to 167 °C.
In turn, `COCCCNS(=O)(=O)NC(=O)OCc1ccc(OCCOC)cc1Oc1ncc(C(F)(F)F)cc1Cl` registered a melting point of 149 to 150 °C.
In the case of `CC(C)NC(=O)Nc1ccc([N+](=O)[O-])cc1O` it was 160 to 161 °C; in that of `CCCOc1cc([N+](=O)[O-])ccc1Cl`, 52 to 53 °C; in that of `CCc1c(C)[nH]c(=O)c(N(C)C)c1Cc1cc(C)cc(C)c1`, 229 to 230 °C.
For `CCCN1N=C2C(=Cc3ccccc3)CSCC2C1c1ccccc1` (stereo not drawn), the melting point fell in the range of 111 to 120 °C.
In turn, `c1ccc(NC2(c3ccccc3)N=C(c3ccccc3)N=C2c2ccccc2)cc1` (stereo not drawn) showed a melting point of 157 °C.
`CCCOC(=Nc1sccc1C#N)OCCC` came in with a melting point of 65 to 67 °C.
For the compound `COC(OC)C(=O)NC1CCN(C[C@@]23C[C@@H](c4ccccc42)c2ccc(Cl)cc23)CC1`, the melting point was in the range of 188 to 189 °C.
Compound `CSC1=NC(=O)C(=Cc2cc(C(C)(C)C)c(O)c(C(C)(C)C)c2)N1C` yielded a melting point of 177 to 179 °C.
In the case of `Cn1ncc(NCCN(CCOc2cccc3c2OCCO3)Cc2ccccc2)c(Cl)c1=O` it was 78 to 80 °C.
Compound `NCCCOc1ccc(OCc2ccccc2)cc1` yielded a melting point of 115 °C.
Take `CCOC(=O)c1cn2c(n1)CN=C(c1ccccn1)c1cc(Br)ccc1-2`: the melting point fell in the range of 227 to 230 °C.
`COCCn1nc(-c2cc(C(C)(C)C)c(O)c(C(C)(C)C)c2)c2cccnc21` showed a melting point of 111 to 113 °C.
Turning to `CNc1nc(Br)cn2c(Br)cnc12`, the melting point was 229 °C.
In turn, `CCCCCCCCCCCCCCOc1ccc(OCc2ccccc2)c(C(=O)N(CC(=O)O)CC(=O)O)c1` returned a melting point of 71 to 74 °C.
The compound `COc1ccc(C(=O)c2ccc(Cl)cc2Cl)cc1Cl` yielded a melting point of 98 °C.
On to `CCCCOc1ccc(C#CC2(O)CN3CCC2CC3)cn1` (stereo not drawn), for which the melting point was in the range of 149 to 151 °C.
`COc1ccc(C(=O)c2cc3cc(OC)ccc3[nH]2)cc1` gave a melting point of 155 to 158 °C.
Compound `OC1(c2cncc(Br)c2)CCCC1` registered a melting point of 74 °C.
Turning to `O=[N+]([O-])c1cc(CC(O)(Cn2cncn2)Cn2cncn2)ccc1Cl`, the melting point was 136 to 137 °C.
For the compound `COc1cccc2c1C1CN(C)CCN1c1ccccc1C2O` (stereo not drawn), the melting point was 217 °C.
In the case of `CCc1ccc2c(c1)C=Cc1oc(C)nc1C2c1cn(Cc2nc(C(=O)O)co2)c(=O)[nH]c1=S` (stereo not drawn) it was 210 °C; in that of `CC1CC(c2c[nH]c(-c3ccc(F)cc3)c2-c2ccncc2)CCN1` (stereo not drawn), 198 to 205 °C.
In the case of `CC1CC(=O)N(c2ccccc2)c2cc(Cl)ccc2N1` (stereo not drawn) it was 167 to 168 °C; in that of `CCC(C)C(OCc1ccccc1)C1C(C(=O)NCC(=O)O)NC(C2CC2)C1[N+](=O)[O-]` (stereo not drawn), 161 to 163 °C; in that of `CCCCCCCCCCCCCCc1ccc(C(=O)O)[nH]1`, 68 to 69 °C.
In the case of `COc1ccc(C=CC(=O)c2c(O)cc(OC)cc2OC)cc1` it was 111 °C.
`CCCCc1ccc2ncn(Cc3ccc(-c4ccccc4-c4nnnn4COC)cc3)c(=O)c2c1`: the melting point was determined as 112 °C.
In turn, `COc1ccccc1-c1cccc(-n2cnc3cc(C(O)C#N)ccc32)c1` (stereo not drawn) yielded a melting point of 116 to 124 °C.
In turn, `O=C(NCCO)/C(=C/c1ccc(OC(F)(F)F)cc1)NC(=O)c1ccc(Oc2ccc(C(F)(F)F)cc2)cc1` came in with a melting point of 84 to 86 °C.
`CC(C)(C)C1CCc2c(c3ccccc3n2CC[N+]2([O-])CCCC2)C1` (stereo not drawn) gave a melting point of 163 to 165 °C.
With `CC(=O)N1c2c(ccn3c(C)c(C)nc23)[C@@H](O)[C@H](OC(=O)C(C)(C)C)[C@H]1c1ccccc1`, the melting point lay in the range of 103 to 105 °C.
Take `CCOC(=O)c1cn(NC=O)c2cc3c(cc2c1=O)OCO3`: the melting point was 255 to 257 °C.
As for `CSC(Nc1ccc2c(c1)OCO2)=C(C#N)S(C)(=O)=O`, the melting point lay in the range of 168 to 170 °C.
Regarding `CCCNC(Nc1cc(C(F)(F)F)cc(C(F)(F)F)c1)=C(C#N)S(=O)(=O)c1ccc(Cl)cc1`, the melting point was 196 to 198 °C.
Consider `CC(=O)Nc1ccc(SC2OC(CO)C(O)C(O)C2O)cc1` (stereo not drawn), for which the melting point is 160 to 163 °C.
In the case of `CCCCCCCCCCCCCCCC(=O)OC[C@H](O)COC(C)=O`, the melting point is 37 to 37.5 °C.
`C=CCOc1ccc(CC(=O)NCCCC)cc1` returned a melting point of 87 to 89 °C.
`CC(C)C(C)C=CC(C)C1CCC2C3=CC=C4CC(O)C=CC4(C)C3CCC21C` (stereo not drawn) showed a melting point of 156 to 157 °C.
Compound `O=c1nc(-c2ccccn2)sc2cc(F)ccc12` yielded a melting point of 250 °C.
`CN(C)S(=O)(=O)n1c(C(=S)NC(O)C(Cl)(Cl)Cl)nc2cc(Cl)c(Cl)cc21` (stereo not drawn) returned a melting point of 158 to 160 °C.
The figure for `O=C1NN(C(=O)Nc2ccc(OCc3ccccc3)cc2)C(c2ccccc2)C1c1ccccc1` (stereo not drawn) is 127 to 130 °C.
In the case of `Cc1cc(-n2cncn2)cc(C#N)c1N` it was 231 to 233 °C; in that of `CCCc1c(OCCCOc2ccc3c(c2CCC)OC(C)(CCC(N)=O)CC3=O)ccc(C(C)=O)c1O` (stereo not drawn), 77 to 79 °C.
`CN1CCN(c2cc3c(cc2F)c(=O)c(C(=O)O)cn3C2COC2)CC1` gave a melting point of 178 to 180 °C.
With `NC(=O)Cc1ccc2c(c1)sc1ccc(Cl)cc12`, the melting point lay within 92 to 99 °C.
The compound `CCN(CC)CCOc1ccc2ncn(/C=C/C(=O)OC)c(=O)c2c1` displayed a melting point of 131 to 133 °C.
Compound `CCOC(=O)c1csc2cc(Oc3cc(Cl)nc(N)n3)ccc12` yielded a melting point of 178 to 179 °C.
For `C=CC(=O)NC[C@H](O)[C@@H](O)[C@H](O)[C@H](O)CO`, the melting point lay within 122 to 123 °C.
`Cc1oc(-c2ccccc2)nc1CCC(=O)O` had a melting point of 124 to 125 °C.
Take `NC(=O)c1sc2nccc(N3CCCN(c4ccc(C(F)(F)F)cc4)CC3)c2c1N`: the melting point was in the range of 204 to 208 °C.
`c1ccc(-c2cn3cccnc3n2)cc1`: the melting point lay in the range of 200 to 202 °C.
In turn, `CCc1nc2c(C)cc(C)nc2n1Cc1ccc(C(c2ccccc2)C(C)C(=O)NS(C)(=O)=O)cc1` (stereo not drawn) had a melting point of 117 to 120 °C.
With `CCCOc1ccc(S(=O)(=O)N2CCN(CC)CC2)cc1-c1nc2cc3ncn(Cc4ccccc4)c3cc2c(=O)[nH]1`, the melting point is 135 to 137 °C.
The figure for `O=C(CCc1ccccn1)Nc1cc(N2CC(c3ccccc3)OC2=O)ccn1` (stereo not drawn) is 169 to 171 °C.
Compound `CS(=O)(=O)c1ccc(-n2nc(CNC(=O)Nc3cccc(C(F)(F)F)c3)cc2-c2ccccc2)cc1` displayed a melting point of 108 to 113 °C.
`COC(=O)C1CCC2C3CCC4CC(O)C=CC4(C)C3C(=O)CC12C` (stereo not drawn) came in with a melting point of 172 to 175 °C.
Compound `C#CCc1c(C)nc(C)nc1NCc1ccc(-c2ccccc2-c2nnn[nH]2)cc1` returned a melting point of 205 to 206 °C.
In the case of `CCCCCCCCCC(CC)SCCCCCCCCCCN1C(=O)CCC1=O` (stereo not drawn), the melting point was 86 °C.
In the case of `CC(Oc1ccc(Oc2ncc(Cl)cc2F)cc1)C(=O)NC=C(C#N)C#N` (stereo not drawn), the melting point lay in the range of 129 to 131 °C.

(Values after a melting point compilation (Tetko et al.; mined from patent text by program, amines drawn as free bases though some values may be those of a salt).)
